Earlier results, collected in patent publication US20100092463A1, “Method for treating or preventing osteoporosis by reducing follicle stimulating hormone to cyclic physiological levels in a mammalian subject” (Searete LLC, a limited liability corporation of the State …, priority 2008, published 2010).
Where a SMILES comes first, the peptide text is derived from it. [ ]: non-standard residue; d: D form. d(hArg(Et2)) = CCN=C(NCC)NCCCC[C@@H](N)C(=O)O; hArg(Et2) = CCN=C(NCC)NCCCC[C@H](N)C(=O)O; dPhe(4-Cl) = N[C@H](Cc1ccc(Cl)cc1)C(=O)O; d2Nal = N[C@H](Cc1ccc2ccccc2c1)C(=O)O; dCit = NC(=O)NCCC[C@@H](N)C(=O)O; d3Pal = N[C@H](Cc1cccnc1)C(=O)O

Conditions: most common adverse effects being nausea and headache

**Q.** Which tolerability does the source give for `CC(=O)N[C@H](Cc1ccc2ccccc2c1)C(=O)N[C@H](Cc1ccc(Cl)cc1)C(=O)N[C@H](Cc1cccnc1)C(=O)N[C@@H](CO)C(=O)N[C@@H](Cc1ccc(O)cc1)C(=O)N[C@H](CCCNC(N)=O)C(=O)N[C@@H](CC(C)C)C(=O)N[C@@H](CCCNC(=N)N)C(=O)N1CCC[C@H]1C(=O)N[C@H](C)C(N)=O` [cetrorelix] (Ac-[d2Nal][dPhe(4-Cl)][d3Pal]SY[dCit]LRP[dA]-NH2) here?
**A.** The tolerability was “well tolerated”.

**Q.** For `CCN=C(NCC)NCCCC[C@H](NC(=O)[C@H](CC(C)C)NC(=O)[C@@H](CCCCNC(=NCC)NCC)NC(=O)[C@H](Cc1ccc(O)cc1)NC(=O)[C@H](CO)NC(=O)[C@@H](Cc1cccnc1)NC(=O)[C@@H](Cc1ccc(Cl)cc1)NC(=O)[C@@H](Cc1ccc2ccccc2c1)NC(C)=O)C(=O)N1CCC[C@H]1C(=O)N[C@H](C)C(N)=O` [ganirelix] (Ac-[d2Nal][dPhe(4-Cl)][d3Pal]SY[d(hArg(Et2))]L[hArg(Et2)]P[dA]-NH2), which tolerability is on record?
**A.** The tolerability was “well tolerated”.
